Data from patent publication US20240158446A1, “CYCLIC COMPOUND HAVING SELECTIVE INHIBITORY ACTION ON KRAS OVER HRAS AND NRAS” (CHUGAI SEIYAKU KABUSHIKI KAISHA, priority 2021, published 2024).
Like-named read-outs stand apart in the source and are kept apart here. *1 amine or outer side, *2 acyl side, *3 side chain or, on linkers, in order; H or OH if unused. Where a SMILES comes first, the peptide text is derived from it. Bridges are numbered along the chain shown (N, C = ends). [ ]: non-standard residue; d: D form. The star is where a group is joined. hPhe(3,5-F2-4-CF3) = N[C@@H](CCc1cc(F)c(C(F)(F)F)c(F)c1)C(=O)O; hPhe(3-Cl-4-CF3) = N[C@@H](CCc1ccc(C(F)(F)F)c(Cl)c1)C(=O)O; NPrPhe(4-CF3) = CCCN[C@@H](Cc1ccc(C(F)(F)F)cc1)C(=O)O; X16 = CCCN([C@@H](Cc1ccc(OC)cc1)C(=O)[*:2])[*:1]; NEtPhe(4-Me) = CCN[C@@H](Cc1ccc(C)cc1)C(=O)O; NMeGly(cPent) = CN[C@H](C(=O)O)C1CCCC1; Pro(4,4-F2) = O=C(O)[C@@H]1CC(F)(F)CN1; Pro(4,4-Me2) = CC1(C)CN[C@H](C(=O)O)C1; NMeD = CN[C@@H](CC(=O)O)C(=O)O; NMeL = CN[C@@H](CC(C)C)C(=O)O; Iva = CC[C@](C)(N)C(=O)O; Morpholide = C1CN(*)CCO1; NMeA = CN[C@@H](C)C(=O)O; Ac5c = NC1(C(=O)O)CCCC1; Aze = O=C(O)[C@@H]1CCN1; NEtG = CCNCC(=O)O; Sar = CNCC(=O)O

Assays:
[1] = molecular target: GDP-bound HRAS wild-type protein (Homo sapiens, UniProt P01112); assay: Binding to HRAS by surface plasmon resonance (SPR), Single Cycle Kinetics; settings: for HRAS/KRAS (ratio of KD value with respect to HRAS to KD value with respect to KRAS) / HRAS/KRAS (ratio of KD value for HRAS to KD value for KRAS): SPR, GDP-bound HRAS wild-type protein vs GDP-bound KRAS wild-type protein; for HRAS/KRAS (ratio of KD value with respect to GDP-bound HRAS wild-type protein to KD value with respect to KRAS): SPR KD ratio HRAS/KRAS, class symbols
GDP-bound HRAS wild-type protein, sequence (P01112 whole entry): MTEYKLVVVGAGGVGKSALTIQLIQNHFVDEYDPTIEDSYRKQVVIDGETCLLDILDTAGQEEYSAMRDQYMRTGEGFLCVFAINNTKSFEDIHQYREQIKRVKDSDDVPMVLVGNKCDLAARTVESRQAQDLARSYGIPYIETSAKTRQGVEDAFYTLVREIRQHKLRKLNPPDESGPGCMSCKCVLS

[2] = molecular target: GDP-bound NRAS wild-type protein (Homo sapiens, UniProt P01111); assay: Binding to NRAS by surface plasmon resonance (SPR), Single Cycle Kinetics; settings: for NRAS/KRAS (ratio of KD value with respect to NRAS to KD value with respect to KRAS) / NRAS/KRAS (ratio of KD value for NRAS to KD value for KRAS): SPR, GDP-bound NRAS wild-type protein vs GDP-bound KRAS wild-type protein; for NRAS/KRAS (ratio of KD value with respect to GDP-bound NRAS wild-type protein to KD value with respect to KRAS): SPR KD ratio NRAS/KRAS, class symbols
GDP-bound NRAS wild-type protein, sequence (P01111 whole entry): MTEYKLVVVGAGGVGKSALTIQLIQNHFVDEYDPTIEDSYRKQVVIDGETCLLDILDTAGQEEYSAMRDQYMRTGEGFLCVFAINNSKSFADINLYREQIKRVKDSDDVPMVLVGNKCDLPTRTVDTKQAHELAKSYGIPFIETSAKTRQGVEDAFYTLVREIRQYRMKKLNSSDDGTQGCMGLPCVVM

[3] = molecular target: GDP-bound KRAS wild-type protein (Homo sapiens, UniProt P01116); assay: Binding to KRAS by surface plasmon resonance (SPR), Single Cycle Kinetics; settings: GDP-bound KRAS wild-type protein, read-out: KRAS KD
GDP-bound KRAS wild-type protein, sequence (P01116 whole entry): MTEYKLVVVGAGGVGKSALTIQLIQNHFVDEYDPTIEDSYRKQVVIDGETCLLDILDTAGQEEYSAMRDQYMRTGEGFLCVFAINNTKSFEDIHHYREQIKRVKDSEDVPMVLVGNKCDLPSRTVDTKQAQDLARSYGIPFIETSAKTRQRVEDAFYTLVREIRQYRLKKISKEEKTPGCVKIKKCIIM

[4] = SPR Single Cycle Kinetics, 1:1 binding model

SMILES	HRAS/KRAS (ratio of KD value with respect to HRAS to KD value with respect to KRAS) [1]	NRAS/KRAS (ratio of KD value with respect to NRAS to KD value with respect to KRAS) [2]	Kd [3, 4]	HRAS/KRAS (ratio of KD value for HRAS to KD value for KRAS) [1]	NRAS/KRAS (ratio of KD value for NRAS to KD value for KRAS) [2]	Kd ([3]; SPR, Single Cycle Kinetics)	HRAS/KRAS (ratio of KD value with respect to GDP-bound HRAS wild-type protein to KD value with respect to KRAS) [1]	NRAS/KRAS (ratio of KD value with respect to GDP-bound NRAS wild-type protein to KD value with respect to KRAS) [2]
CCCN1C(=O)CN(C)C(=O)CN(C)C(=O)[C@H]([C@@H](C)CC)NC(=O)[C@H](CC(C)C)N(C)C(=O)C[C@@H](C(=O)N2CCOCC2)N(C)C(=O)[C@H](C2CCCC2)N(C)C(=O)[C@](C)(CC)NC(=O)[C@@H]2CCCN2C(=O)[C@H](CCc2cc(F)c(C(F)(F)F)c(F)c2)NC(=O)CN(C)C(=O)[C@@H]1Cc1ccc(C(F)(F)F)cc1 [PP0754] ([NMeL]I[Sar][Sar][NPrPhe(4-CF3)][Sar][hPhe(3,5-F2-4-CF3)]P[Iva][NMeGly(cPent)][NMeD]-Morpholide; lactam N-11)	C (A compound having a KD ratio of 0.1 or more and less than 3 is denoted as C)	B (a compound having 3 or more and less than 10 is denoted as B)	0.49 nM					
CCCN1C(=O)[C@@H]2CCN2C(=O)[C@H](C)N(C)C(=O)[C@H]([C@@H](C)CC)NC(=O)[C@H](CC(C)C)N(C)C(=O)C[C@@H](C(=O)N2CCOCC2)N(C)C(=O)[C@H](C2CCCC2)N(C)C(=O)C2(CCCC2)NC(=O)[C@@H]2CC(C)(C)CN2C(=O)[C@H](CCc2ccc(C(F)(F)F)c(Cl)c2)NC(=O)CN(C)C(=O)[C@@H]1Cc1ccc(C(F)(F)F)cc1 [PP0454] ([NMeL]I[NMeA][Aze][NPrPhe(4-CF3)][Sar][hPhe(3-Cl-4-CF3)][Pro(4,4-Me2)][Ac5c][NMeGly(cPent)][NMeD]-Morpholide; lactam N-11)	C (A compound having a KD ratio of 0.1 or more and less than 3 is denoted as C)	C (A compound having a KD ratio of 0.1 or more and less than 3 is denoted as C)	0.073 nM					
CCO[C@@H]1C[C@H]2C(=O)NC3(CCC3)C(=O)N(C)[C@@H](C3CCCC3)C(=O)N(C)[C@H](C(=O)N3CCOCC3)CC(=O)N(C)[C@@H](CC)C(=O)N[C@@H]([C@@H](C)CC)C(=O)N(C)CC(=O)N(C)[C@H]3CCCCN(C3=O)[C@@H](Cc3ccc(C(F)(F)F)cc3)C(=O)N(C)CC(=O)N[C@@H](CCc3cc(F)c(C(F)(F)F)c(F)c3)C(=O)N2C1 [PP0708]	B (a compound having 3 or more and less than 10 is denoted as B)	B (a compound having 3 or more and less than 10 is denoted as B)	0.026 nM					
CCO[C@@H]1C[C@H]2C(=O)NC3(CC(C)(C)C3)C(=O)N(C)[C@@H](C(CC)CC)C(=O)N(C)[C@H](C(=O)N(C)C)CC(=O)N(C)[C@@H](CC3CC3)C(=O)N[C@@H]([C@@H](C)CC)C(=O)N(C)CC(=O)N(C)[C@H]3C/C=C\CCN(C3=O)[C@@H](Cc3ccc(C(F)(F)F)cc3)C(=O)N(C)CC(=O)N[C@@H](CCc3ccc(C(F)(F)F)c(OC)c3)C(=O)N2C1 [PP2155]				B (a compound having 3 or more and less than 10 is denoted as B)	A (a compound having 10 or more and less than 20 is denoted as A)	0.37 nM		
CCCO[C@H]1CCN2C(=O)[C@H](CCc3cc(F)c(C(F)(F)F)c(F)c3)NC(=O)CN(C)C(=O)[C@H](Cc3ccc(C(F)(F)F)cc3)N3CCCCC[C@@H](C3=O)N(C)C(=O)CN(C)C(=O)[C@H]([C@@H](C)CC)NC(=O)[C@H](CC(C)C)N(C)C(=O)C[C@@H](C(=O)N3CCOCC3)N(C)C(=O)[C@H](C3CCCC3)N(C)C(=O)C3(CCC3)NC(=O)[C@H]12 [PP1069]				B (a compound having 3 or more and less than 10 is denoted as B)	A (a compound having 10 or more and less than 20 is denoted as A)	2.5 nM		
CC[C@H](C)[C@@H]1NC(=O)[C@H](CC(C)C)N(C)C(=O)C[C@@H](C(=O)N2CCOCC2)N(C)C(=O)[C@H](C2CCCC2)N(C)C(=O)C2(CCCC2)NC(=O)[C@@H]2CCCN2C(=O)[C@H](CCc2ccc(C(F)(F)F)c(Cl)c2)NC(=O)CN(CC)C(=O)[C@H](Cc2ccc(C)cc2)N(CC)C(=O)CN(CC)C(=O)CN(C)C1=O [PP0030] ([NMeL]I[Sar][NEtG][NEtPhe(4-Me)][NEtG][hPhe(3-Cl-4-CF3)]P[Ac5c][NMeGly(cPent)][NMeD]-Morpholide; lactam N-11)			7.7 nM	C (A compound having a KD ratio of 0.1 or more and less than 3 is denoted as C)	C (A compound having a KD ratio of 0.1 or more and less than 3 is denoted as C)			
CCCN1C(=O)CN(C)C(=O)CN(CC)C(=O)[C@H]([C@@H](C)CC)NC(=O)[C@H](CC(C)C)N(C)C(=O)C[C@@H](C(=O)N(C)C)N(C)C(=O)[C@H](C2CCCC2)N(C)C(=O)C2(CCCC2)NC(=O)[C@@H]2CC(F)(F)CN2C(=O)[C@H](CCc2ccc(C(F)(F)F)c(Cl)c2)NC(=O)CN(C)C(=O)[C@@H]1Cc1ccc(C(F)(F)F)cc1 [PP0425] ([NMeL]I[NEtG][Sar][NPrPhe(4-CF3)][Sar][hPhe(3-Cl-4-CF3)][Pro(4,4-F2)][Ac5c][NMeGly(cPent)][NMeD]-NMe2; lactam N-11)	C (A compound having a KD ratio of 0.1 or more and less than 3 is denoted as C)	B (a compound having 3 or more and less than 10 is denoted as B)	0.099 nM					
CC[C@H](C)[C@@H]1NC(=O)[C@H](C)N(C)C(=O)C[C@@H](C(=O)N(C)C)N(C)C(=O)[C@H](C2CCCC2)N(C)C(=O)C2(CCC2)NC(=O)[C@@H]2CC(F)(F)CN2C(=O)[C@H](CCc2cc(F)c(C(F)(F)F)c(F)c2)NC(=O)CN(C)C(=O)[C@H](Cc2ccc(C(F)(F)F)cc2)N2CC/C=C\C[C@@H](C2=O)N(C)C(=O)CN(C)C1=O [PP1103, (2S,8S,14S,20S,23S,27S,30S,36S,38Z)-20-cyclopentyl-8-[2-[3,5-difluoro-4-(trifluoromethyl)phenyl]ethyl]-12,12-difluoro-N,N,4,19,22,26,27,32,35-nonamethyl-30-[(1S)-1-methylpropyl]-3,6,9,15,18,21,25,28,31,34,42-undecaoxo-2-[[4-(trifluoromethyl)phenyl]methyl]spiro[1,4,7,10,16,19,22,26,29,32,35-undecazatricyclo[34.5.1.0^10,14]dotetracont-38-ene-17,1′-cyclobutane]-23-carboxamide]				B (a compound having 3 or more and less than 10 is denoted as B)	A (a compound having 10 or more and less than 20 is denoted as A)	0.036 nM		
CC[C@H](C)[C@@H]1NC(=O)[C@H](CC(C)C)N(C)C(=O)C[C@@H](C(=O)N2CCOCC2)N(C)C(=O)[C@H](C2CCCC2)N(C)C(=O)C2(CC(F)(F)C2)NC(=O)[C@@H]2CCCN2C(=O)[C@H](CCc2cc(F)c(C(F)(F)F)c(F)c2)NC(=O)CN(C)C(=O)[C@H](Cc2ccc(C(F)(F)F)cc2)N2CCCC[C@@H](C2=O)N(C)C(=O)CN(C)C1=O [PP0562]	B (a compound having 3 or more and less than 10 is denoted as B)	B (a compound having 3 or more and less than 10 is denoted as B)	0.04 nM					
CCO[C@@H]1C[C@H]2C(=O)NC3(CC(C)(C)C3)C(=O)N(C)[C@@H](C3CCCC3)C(=O)N(C)[C@H](C(=O)N3CCCCC3)CC(=O)N(C)[C@H]3CCC/C=C/c4ccc(cc4)C[C@@H](C(=O)N(C)CC(=O)N[C@@H](CCc4cc(F)c(C(F)(F)F)c(F)c4)C(=O)N2C1)N1CC/C=C\C[C@@H](C1=O)N(C)C(=O)CN(C)C(=O)[C@H]([C@@H](C)CC)NC3=O [PP2573]			0.1 nM				A (a compound having 10 or more and less than 20 is denoted as A)	A (a compound having 10 or more and less than 20 is denoted as A)
CCCN1C(=O)CN(C)C(=O)CN(C)C(=O)[C@H]([C@@H](C)CC)NC(=O)[C@H](CC(C)C)N(C)C(=O)C[C@@H](C(=O)N2CCOCC2)N(C)C(=O)[C@H](C2CCCC2)N(C)C(=O)C2(CCCC2)NC(=O)[C@@H]2CCCN2C(=O)[C@H](CCc2ccc(C(F)(F)F)c(Cl)c2)NC(=O)CN(C)C(=O)[C@@H]1Cc1ccc(OC)cc1 [PP0135] ([NMeL]I[Sar][Sar][X16][Sar][hPhe(3-Cl-4-CF3)]P[Ac5c][NMeGly(cPent)][NMeD]-Morpholide; lactam N-11)			0.75 nM	C (A compound having a KD ratio of 0.1 or more and less than 3 is denoted as C)	B (a compound having 3 or more and less than 10 is denoted as B)			
CC[C@H](C)[C@@H]1NC(=O)[C@H](CC(C)C)N(C)C(=O)C[C@@H](C(=O)N2CCOCC2)N(C)C(=O)[C@H](C2CCCC2)N(C)C(=O)C2(CCCC2)NC(=O)[C@@H]2CCCN2C(=O)[C@H](CCc2cc(F)c(C(F)(F)F)c(F)c2)NC(=O)CN(C)C(=O)[C@H](Cc2ccc(C(F)(F)F)cc2)N2CCCCC[C@@H](C2=O)N(C)C(=O)[C@@H]2CCN2C1=O [PP0484]	B (a compound having 3 or more and less than 10 is denoted as B)	A (a compound having 10 or more and less than 20 is denoted as A)	3.2 nM					
CCO[C@@H]1C[C@H]2C(=O)NC3(CCC3)C(=O)N(C)[C@@H](C3CCCC3)C(=O)N(C)[C@H](C(=O)N(C)C)CC(=O)N(C)[C@@H](CC3CCCC3)C(=O)N[C@@H]([C@@H](C)CC)C(=O)N(C)CC(=O)N(C)[C@H]3C/C=C\CCN(C3=O)[C@@H](Cc3ccc(C)cc3)C(=O)N(C)CC(=O)N[C@@H](CCc3cc(C)c(C(F)F)c(Cl)c3)C(=O)N2C1 [PP2677]			1.3 nM				A (a compound having 10 or more and less than 20 is denoted as A)	A (a compound having 10 or more and less than 20 is denoted as A)
